The subject of data set [1] is cell lines.
The test system of data set [2] is cell lines. The data set is described as follows: Toxicity on cell lines seen in the antiviral experiments. The settings on record: 8% PVA + glutaraldehyde coatings.
A further data set relates to murine coronavirus (MHV). The data set is described as follows: Powdered alcohol mixed directly with MHV, L929 cell infection/TCID50 assay. The settings on record: FIG. 6; CD encapsulated ethanol vs gamma-CD alone. It counts as cell-based, Mouse Hepatitis Virus. As to the method: The powders obtained in Example 1 were tested for their effectiveness in inactivating the murine coronavirus in 5 minutes using L929 cells. L929 cells at 5×10^5 cells/ml concentration in 100 μl volume in a 96 wells format were used. First, the virus stock was diluted 10 times in 1×PBS. Then 20 μl MHV (multiplicity of infection [MOI] 3.0) was mixed with 10 mg and 20 mg powdered alcohol for 5 minutes at room temperature with repetitive pipetting to maximise the interaction between the virus and powdered alcohol. To mitigate the potential side effects of the powdered alcohol on L929 cells, powder treated cell culture media (cDMEM) was prepared as a control. After recovering the virus and the control media from the mixture, treated samples (triplicates) were immediately diluted in 20 μl cDMEM, thereby bringing the final MOI to 1.0. In a 96 wells format, 8 serial dilutions (DF=5.0) were prepared per sample together with non-treated virus and cell culture media (cDMEM) as positive and negative controls, respectively. Cell infection phenotype as cell death and cytopathic effect (CPE) was observed under a benchtop light microscope (20× magnification) at 24-, 48- and 72-hours post infection (hpi) intervals (FIG. 4). TCID50/ml values per experiment were calculated at 72 hpi using Reed&Muench Calculator. […]

The results in this text go back to patent publication US20240196886A1, “ANTIBACTERIAL AND/OR ANTIVIRAL COATINGS” (CODIKOAT LTD, priority 2021, published 2024).

Consider `OCl` [HOCl, hypochlorous acid], for which the “cell death and toxicity” value in the data set with cell lines [1] is “cell death and toxicity were observed”.
Take `O=CCCCC=O` [glutaraldehyde]: the “glutaraldehyde concentration above which toxicity on cell lines was observed” value in the data set with cell lines [2] is listed as “higher than 0.7%”.
As to `OC[C@H]1O[C@@H]2O[C@H]3[C@H](O)[C@@H](O)[C@@H](O[C@H]4[C@H](O)[C@@H](O)[C@@H](O[C@H]5[C@H](O)[C@@H](O)[C@@H](O[C@H]6[C@H](O)[C@@H](O)[C@@H](O[C@H]7[C@H](O)[C@@H](O)[C@@H](O[C@H]8[C@H](O)[C@@H](O)[C@@H](O[C@H]9[C@H](O)[C@@H](O)[C@@H](O[C@H]1[C@H](O)[C@H]2O)O[C@@H]9CO)O[C@@H]8CO)O[C@@H]7CO)O[C@@H]6CO)O[C@@H]5CO)O[C@@H]4CO)O[C@@H]3CO` [CD alone, gamma-cyclodextrin], the log reduction in the data set on murine coronavirus (MHV) is 1 log.
